According to US20260053767A1, “Hepatoprotective Compositions And Methods” (Jemyll, Ltd., priority 2022, published 2026):
“Also recorded” adds a separate entry of the source.

Columns and labels:
rat primary HSCs = test: HSCs activation by flow cytometry (α-SMA and collagen type I protein expression); type: cell-based; details: 3 days CM from palmitate-treated hepatocytes, then 1% (w/vol) for 24 hours, without compound 25.15%
Protocol: A 10% (w/v) FFA-free BSA (Sigma) solution was prepared in ddH2O and maintained at 55° C. in a water bath. 10 mM FFA/1% BSA solution was obtained by complexing the appropriate amount of palmitate stock solution to 10% BSA at 55° C. for another 30 min. The above solution was then cooled to 25° C., filter sterilized and stored at −20° C. until use. Primary hepatocytes were grown in DMEM supplemented with palmitate (0.4 mM). After 24 h. CM was clarified by centrifugation at 6000 g to remove cell debris, sterile filtered with a 0.45 μm pore size membrane filter and stored in aliquots at −20° C. until use.
Hepatic Stellate cells: Primary hepatic stellate cells were isolated from Wistar rats as described previously (7). In brief, the rats were surgically opened under anesthesia, and the livers were perfused through the IVC with 0.5 mM EGTA, after which the portal vein was cut and the upper IVC was clamped. […] HSCs activation was assessed by flow cytometry by evaluating alpha-smooth muscle Actin (α-SMA) and Collagen type I alpha 1 (COLIA1) protein expression. α-SMA and COLIA1 antibodies were obtained from Thermo Fisher scientific (Waltham, MA). Flow cytometric analysis was conducted with CytoFlex (Beckman Coulter, Brea, CA) and data analyzed with Kaluza software (Beckman Coulter, Brea, CA). […]

[1] = tested on: primary human hepatocytes; test: In vitro palmitic acid stimulation, gene expression by quantitative real-time PCR; type: cell-based
Protocol: Total RNA from human primary hepatocytes was extracted using the RNeasy Plus Mini Kit according to the indications provided by the company. A small aliquot of total RNA obtained (3 μl) was subjected to qualitative and quantitative control by using the microdrop. The qualitative and quantitative assessment of the individual samples was determined using a dedicated software. The total RNA was reverse transcribed into cDNA by using iScript RT. SYBR Green gene expression assays were performed according to the manufacturer's instruction using the iQTMSYBR Green Supermix and the CFX96 Touch Real-Time PCR Detection System. For this purpose, the following pairs of primer were used: solute carrier family 13 member 5 (SLC13A5) (forward 5′ […] 3′ (SEQ ID NO:1) and reverse 5′ […] 3′ (SEQ ID NO:2)), Diacylglycerol O-Acyltransferase 1 (DGAT1) (forward 5′ […] 3′ (SEQ ID NO:3) and reverse 5′ […] 3′ (SEQ ID NO:4)), Fatty Acid Synthase (FASN) (forward 5′ […] 3′ (SEQ ID NO:5) and reverse 5′ […] 3′ (SEQ ID NO:6)), carnitine palmitoyltransferase 1A (CPT1A) (forward 5′ […] 3′ (SEQ ID NO:7) and reverse 5′ […] 3′ (SEQ ID NO:8)) and Acetyl-CoA carboxylase (ACC1) (forward 5′ […] 3′ (SEQ ID NO:9) and reverse 5′ […] 3′ (SEQ ID NO:10)). mRNA expression levels were normalized to B2-microglobulin (forward 5′[…] 3′ (SEQ ID NO:11); and reverse 5′[…] 3′ (SEQ ID NO:12)) and quantification of relative gene expression, presented as percentage of the relevant baseline, was calculated using the 2-ACT (comparative threshold) method.
Isolation of human primary hepatocytes: Tissue obtained during percutaneous liver biopsy, was diced (<3 mm) and washed in HBSS to remove excess blood. Tissue was then transferred to a tube containing pre-warmed EGTA buffer (HBSS, 0.5 mM EGTA, 0.5% fatty acid free bovine serum albumin (BSA)) and agitated (100 rpm) in a water bath with shaking bed for 10 min, 37° C. After three washes, to remove the remaining blood and EGTA, the tissue was placed in pre-warmed digestion buffer (HBSS, 0.05% collagenase IV, 0.5% fatty acid free BSA, 10 mM CaC12) and agitated (100 rpm) in a water bath with shaking bed for 30 min, 37° C. The digested tissue was filtered through 100 μm cell strainer while the remaining tissue was again digested in fresh digestion buffer (20). Cell suspensions were pooled and centrifuged at 80 g for 5 min, 4° C. and the supernatant discarded. Cells were grown until confluent and used for citrate uptake analysis.
At the end of the stimulation de novo lipogenesis, fatty acid beta-oxidation and SLC13A5 gene expression were assessed by Quantitative Real-Time PCR Analysis.

[2] = NIDDM patients, intravenous infusion; cited from earlier work
[3] = primary human hepatocytes, C12 1% (v/w) with palmitic acid 0.4 mM, vs palmitic acid alone

O=C(O)CCCCCCCCCCC(=O)O [DDDA, dodecanedioic acid]
expression of COLA1A and α-SMA (flow cytometry) (rat primary HSCs): 9.18% | gene expression of citrate transporter SLC13A5 ([1]; human hepatocytes, C12 1% (v/w) with palmitic acid 0.4 mM, vs palmitic acid alone, listed as C12): significant decrease; also recorded: reducing citrate transporter SLC13A5 | DNL in primary hepatocytes (figure legend) ([1]; palmitic acid 0.4 mM, C12 1%): reduces | ACC1 (de novo lipogenesis enzyme) [1, 3]: significant reduction | CPT1A (fatty acid beta-oxidation enzyme) [1, 3]: significant increase | DGAT (de novo lipogenesis enzyme) [1, 3]: significant reduction | FASN (de novo lipogenesis enzyme) [1, 3]: significant reduction | plasma glucose levels during infusion [2]: significantly decreased
